Here are results for 2 compounds from patent publication US20260000781A1, “FC CONJUGATES INCLUDING AN INHIBITOR OF CD73 AND USES THEREOF” (Cidara Therapeutics, Inc., priority 2022, published 2026).

For assay [1], the target named is T1, CD73 (Homo sapiens, UniProt P21589).
T1 sequence (P21589 27-549): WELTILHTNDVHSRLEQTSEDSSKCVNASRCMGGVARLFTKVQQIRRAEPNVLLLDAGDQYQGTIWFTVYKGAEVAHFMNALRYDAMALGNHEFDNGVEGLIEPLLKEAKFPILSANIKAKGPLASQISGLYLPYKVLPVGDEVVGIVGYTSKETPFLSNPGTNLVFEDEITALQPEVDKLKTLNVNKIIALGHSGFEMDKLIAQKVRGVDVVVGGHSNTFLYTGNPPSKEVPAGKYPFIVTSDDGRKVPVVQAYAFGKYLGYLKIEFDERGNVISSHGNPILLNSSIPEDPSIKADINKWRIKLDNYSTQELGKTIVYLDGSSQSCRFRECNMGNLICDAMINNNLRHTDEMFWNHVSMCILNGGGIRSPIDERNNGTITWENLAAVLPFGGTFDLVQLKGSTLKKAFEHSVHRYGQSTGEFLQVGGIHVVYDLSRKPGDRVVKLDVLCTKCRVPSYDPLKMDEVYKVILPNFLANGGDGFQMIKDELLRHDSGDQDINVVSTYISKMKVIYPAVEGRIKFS
In words: Cell-free CD73 enzyme inhibition assay. The format is biochemical. The note with it: recombinant human CD73 0.1 ng/μL, AMP 100 μM, 25 min at 37° C. (FIG. 1A, 1B). The method, then: The cell-free CD73 enzyme inhibition assay was performed in a 96-well plate format using the CD73 Inhibitor Screening Assay Kit in accordance with the manufacturer's instructions (cat no. 72055, BPS Bioscience). […] Colorimetric detection reagent was then added (100 μL/well) and the free phosphate from the CD73 reaction was measured by reading the absorbance at 630 nm using the EnSpire multimode plate reader (PerkinElmer). Wells without test inhibitor (CD73 positive control) were included on each plate. Blank wells without test inhibitor and CD73 were subtracted from all wells. Percent CD73 inhibition versus inhibitor concentration was plotted using GraphPad Prism Version 8 and IC50's calculated using nonlinear regression analysis (Sigmoidal, 4 PL).
The cell-free CD73 enzyme inhibition assay was performed in a 96-well plate format using the CD73 Inhibitor Screening Assay Kit in accordance with the manufacturer's instructions (BPS Bioscience cat no. 72055). […] Colorimetric detection reagent was then added (100 μL/well) and the free phosphate from the CD73 reaction was measured by reading the absorbance at 630 nm using the EnSpire multimode plate reader (PerkinElmer). Wells without test inhibitor (CD73 positive control) were included on each plate. Blank wells without test inhibitor and CD73 were subtracted from all wells. Percent CD73 inhibition (y-axis) versus log10 inhibitor concentration (x-axis) was plotted using GraphPad Prism Version 8 and IC50's calculated using nonlinear regression analysis (Sigmoidal, 4 PL).

For assay [2], the target named is T2, CD73 expressed on the MDA-MB-231 cell surface (Homo sapiens, UniProt P21589).
T2 construct: host or cells: MDA-MB-231
T2 sequence (P21589 27-549): T1 sequence (P21589 27-549)
The assay is described as follows: Cell-based CD73 enzyme inhibition assay on MDA-MB-231 cells. The note with it: AMP 100 μM, 3 h (FIG. 2). The method, then:
The cell-based CD73 enzyme inhibition assay was performed essentially as described above for the cell-free assay, with the following modifications.
(§1) The cell-based CD73 enzyme inhibition assay was performed essentially as described above for the cell-free assay, with the following modifications. MDA-MB-231 human breast adenocarcinoma cells (ATCC CRM-HTB-26) were seeded at 2×10^4 cells/well/100 μL into 96-well tissue culture-treated plates (Corning Costar cat no. 3596) and incubated overnight at 37° C., 5% CO2. […] The 96-well plate was then centrifuged at 125×g for 5 min at room temperature and ATP (25 μL/well, 100 μM final) was combined with supernatant (25 μL/well) in a white opaque 96-well plate (Corning Costar cat no. 3912).
as §1, with “3912). […] Percent CD73 inhibition (y-axis) versus log10 inhibitor concentration (x-axis) were plotted using GraphPad Prism Version 8 and IC50's calculated using nonlinear regression analysis (Sigmoidal, 4 PL).” for “3912).”

In assay [3] the target is T3, surface-expressed CD73 on human T cells (Homo sapiens, UniProt P21589).
T3 construct: 72400 (T cells); host or cells: human PBMCs / human T cells
T3 sequence (P21589 27-549): T1 sequence (P21589 27-549)
The assay is described as follows: Human immune cell-based CD73 enzyme inhibition assay (T cells). Particulars: 2.5-3 h. The method, then:
(§2) The human immune cell-based CD73 enzyme inhibition assay was performed essentially as described above For the cell-free assay, with the following modifications. Human PBMCs (cat. no. HUMAN-PBMC-U-211140) or T cells (cat. no. 72400, Stem Cell Tech) were seeded at 8×10^3 cells/well into 96-well tissue culture-treated plates. […] Percent CD73 inhibition versus concentration were plotted using GraphPad Prism Version 8 and IC50's calculated using nonlinear regression analysis ([inhibitor]vs normalized response).

Assay [4] deals with T4, surface-expressed CD73 on human PBMCs (Homo sapiens, UniProt P21589).
T4 construct: 72400 (T cells); host or cells: human PBMCs / human T cells
T4 sequence (P21589 27-549): T1 sequence (P21589 27-549)
In words: Human immune cell-based CD73 enzyme inhibition assay (PBMCs). Particulars: AMP 300 μM, 2.5-3 h. As for the experimental part: as §2

For orientation: IC50 means the midpoint of a concentration-inhibition curve. As to `C#CCOCCOCCOCCOCCOC1CCC2(CC1)CN(c1nc(Cl)nc3c1cnn3[C@@H]1O[C@H](COCP(=O)(O)O)[C@@H](O)[C@H]1O)C2` [Int-258], the results for the IC50 in assay [1] and in assay [2] were 26.1 nM and 41.4 nM, respectively.

Turning to `O=C(CCOCCOCCOCCOCCn1cc(COCCOCCOCCOCCOC2CCC3(CC2)CN(c2nc(Cl)nc4c2cnn4[C@@H]2O[C@H](COCP(=O)(O)O)[C@@H](O)[C@H]2O)C3)nn1)Oc1c(F)cc(F)cc1F` [Int-259], the IC50 in assay [3] (T Cells - Experiment 1, AMP 300 μM) was found to be 1.47 nM; in assay [3] (T Cells - Experiment 2, AMP 300 μM), 0.12 nM; in assay [4], 2.87 nM.
